Measured values as given in PMC6178619, “Arylvinylpiperazine Amides, a New Class of Potent Inhibitors Targeting QcrB of Mycobacterium tuberculosis” (mBio, 2018).
In brackets after ≈: the same amount, converted by molar mass. Like-named read-outs stand apart in the source and are kept apart here.

Columns and labels:
Mycobacterium bovis BCG = experiment: microbe, parasite or virus in culture; format: cell-based; settings: Mycobacterium tuberculosis variant bovis BCG
M. tuberculosis H37Rv [1] = format: cell-based; settings: up to a concentration 32-fold higher than the MIC, 7 days
wild-type H37Rv = format: cell-based, Mycobacterium tuberculosis; settings: 2.5× MIC, 24 h exposure
Pseudomonas aeruginosa = experiment: MIC by REMA; format: cell-based
M. tuberculosis H37Rv [2] = settings: cited from earlier work
Mycobacterium ulcerans = experiment: MIC by REMA; format: cell-based
Listeria monocytogenes = experiment: MIC by REMA; format: cell-based
Mycobacterium smegmatis = experiment: MIC by REMA; format: cell-based; settings: Mycolicibacterium smegmatis
Staphylococcus aureus = experiment: MIC by REMA; format: cell-based
Enterococcus faecalis = experiment: MIC by REMA; format: cell-based
in vitro = experiment: in vitro
Experimental: Metabolic stability of the compounds was measured based on intrinsic clearance (Clint) in mouse and human liver microsomes as previously described ([42]). The final compound concentration in the mixture of microsomes and NADPH regeneration system was 2 µg/ml, and a mixture without NADPH regeneration was also prepared for each compound as a control of the stability of the compound with time.

Micrococcus luteus = experiment: MIC by REMA; format: cell-based
Mycobacterium marinum = experiment: MIC by REMA; format: cell-based
HepG2 cells = format: cell-based, human
Experimental: Human HepG2 cells (4,000 cells/well) were incubated for 3 days with 2-fold serially diluted compounds at 37°C under an atmosphere of 5% CO2. Cell viability was determined by the addition of resazurin (0.0025% wt/vol) for 4 h at 37°C, and the fluorescence intensity was measured as in REMA.

Escherichia coli = experiment: MIC by REMA; format: cell-based
Bacillus subtilis = experiment: MIC by REMA; format: cell-based
[3] = test system: M. tuberculosis H37Rv ΔcydAB; format: cell-based; settings: ΔcydAB strain; AX-35 14 µM, Q203 0.3 µM (100× MIC50)
[4] = test system: Mycobacterium massiliense; experiment: MIC by REMA; format: cell-based; settings: Mycobacteroides abscessus
[5] = test system: Salmonella enterica serovar Typhimurium; experiment: MIC by REMA; format: cell-based
Mycobacterium vaccae = experiment: MIC by REMA; format: cell-based; settings: Mycolicibacterium vaccae
M. tuberculosis H37Rv [6] = experiment: MIC by resazurin reduction microplate assay (REMA); format: cell-based, Mycobacterium tuberculosis
[7] = test system: H37Rv ΔcydAB::cydAB complemented strain; format: cell-based
[8] = test system: Corynebacterium glutamicum; experiment: MIC by REMA; format: cell-based
Mycobacterium avium = experiment: MIC by REMA; format: cell-based
[9] = test system: Mycobacterium canettii STB-L; experiment: MIC by REMA; format: cell-based; settings: Mycobacterium canetti
M. tuberculosis H37Rv [10] = format: cell-based; settings: AX-35 14 µM, Q203 0.3 µM (100× MIC50), glucose
Candida albicans = experiment: MIC by REMA; format: cell-based
M. tuberculosis H37Rv [11] = experiment: Acute mouse model of TB; format: in vivo, mouse (BALB/c); settings: for Reduction of bacterial load in mouse lungs vs TPGS vehicle control: once daily for 10 days
[12] = test system: M. tuberculosis H37Rv-infected THP-1 macrophages; experiment: microbe, parasite or virus in culture; format: cell-based; settings: Mycobacterium tuberculosis, THP-1, 48 h, read-out: Antimycobacterial activity against M. tuberculosis H37Rv, ex vivo in THP-1 macrophages (IC50)
M. bovis BCG = settings: cited from earlier work
[13] = test system: Corynebacterium diphtheriae; experiment: MIC by REMA; format: cell-based
Pseudomonas putida = experiment: MIC by REMA; format: cell-based
[14] = H37RV; Mycobacterium tuberculosis (Table 2 panel); read-out: MIC
[15] = Mycobacterium tuberculosis, H37RV, 144 h; read-out: Antimycobacterial activity against M. tuberculosis H37Rv, in vitro (MIC)
[16] = Mycobacterium canettii STB-L, read-out: MIC

Row | SMILES | MIC (Mycobacterium bovis BCG) [µg/mL] | MIC (Pseudomonas aeruginosa) [µg/mL] | MIC (Mycobacterium ulcerans) [µg/mL] | MIC (Listeria monocytogenes) [µg/mL] | MIC (Mycobacterium smegmatis) [µg/mL] | MIC (Staphylococcus aureus) [µg/mL] | MIC (Enterococcus faecalis) [µg/mL] | Clearance Category (in vitro; human, microsomes) | microsomal CLint at 2 µg/ml (in vitro; human, microsomes) [µL/min/mg] | Clearance Category (in vitro; mouse, microsomes) | microsomal CLint at 2 µg/ml (in vitro; mouse, microsomes) [µL/min/mg] | MIC (Micrococcus luteus) [µg/mL] | MIC (Mycobacterium marinum) [µg/mL] | Cytotoxicity in HepG2 cells (TD50) (HepG2 cells; 3 days incubation) [µg/mL] | MIC (Escherichia coli) [µg/mL] | MIC (Bacillus subtilis) [µg/mL] | MIC [4] [µg/mL] | MIC [5] [µg/mL] | MIC (M. tuberculosis H37Rv [6]; [15]) [µg/mL] | IC50 [12] [µg/mL] | also measured
1 | O=C(/C=C/c1cccs1)N1CCN(Cc2ccc3c(c2)OCO3)CC1 [AX-35, (E)-1-(4-(Benzo[d][1,3]dioxol-5-ylmethyl)piperazin-1-yl)-3-(thiophen-2-yl)prop-2-en-1-one] | 0.8 (≈ 2.24 µM) | > 100 | 1.6 (≈ 4.49 µM) | > 100 | 100 (≈ 281 µM) | > 100 | > 100 | medium | 21.7 | high | 120 | > 100 | 11.5 (≈ 32.3 µM) | 50 | 74 (≈ 208 µM) | > 100 | 7.7 (≈ 21.6 µM) | > 100 | 0.05 (≈ 0.14 µM) | 0.1 (≈ 0.281 µM) | Mode of action (MBC, 99.9% killed) (M. tuberculosis H37Rv [1]): bacteriostatic; Intracellular ATP level, lower than untreated control (wild-type H37Rv): ~90%; MIC (M. tuberculosis H37Rv [2]): 0.3 µM (≈ 0.107 µg/mL); Increase in OCR on compound addition [3]: no longer observed; MIC (Mycobacterium vaccae): 12.1 µg/mL (≈ 33.9 µM); Antimycobacterial activity against M. tuberculosis H37Rv, in vitro (MIC) (M. tuberculosis H37Rv [6]): 0.05 µg/mL; MIC (M. tuberculosis H37Rv [6]; [14]): 0.05 µg/mL (≈ 0.14 µM); Outcome of AX-35 treatment in complemented strain [7]: survival of the bacteria; MIC [8]: > 100 µg/mL; MIC (Mycobacterium avium): 8.2 µg/mL (≈ 23 µM); MIC [9, 16]: 0.003 µg/mL (≈ 0.00842 µM); Oxygen consumption rate (OCR) change from basal on compound addition (M. tuberculosis H37Rv [10]): increase; MIC (Candida albicans): > 100 µg/mL; Reduction of bacterial load in mouse lungs vs TPGS vehicle control (M. tuberculosis H37Rv [11]; oral 200 mg/kg): 0.4 log10; MIC (M. bovis BCG): 0.3 µM (≈ 0.107 µg/mL); MIC [13]: > 100 µg/mL; MIC (Pseudomonas putida): > 100 µg/mL
2 | O=C(/C=C/c1ccsc1)N1CCN(Cc2ccc3c(c2)OCO3)CC1 [AX-36, (E)-1-(4-(Benzo[d][1,3]dioxol-5-ylmethyl)piperazin-1-yl)-3-(thiophen-3-yl)prop-2-en-1-one] | 0.8 (≈ 2.24 µM) | > 100 | 1.6 (≈ 4.49 µM) | > 100 | 63 (≈ 177 µM) | > 100 | > 100 | medium | 16.8 | high | 117 | > 100 | 19.6 (≈ 55 µM) | 37.5 | 100 (≈ 281 µM) | > 100 | 10.4 (≈ 29.2 µM) | > 100 | 0.1 (≈ 0.281 µM) | 0.3 (≈ 0.842 µM) | Intracellular ATP level, lower than untreated control (wild-type H37Rv): ~90%; MIC (Mycobacterium vaccae): 26.9 µg/mL (≈ 75.5 µM); MIC (M. tuberculosis H37Rv [6]; [14]): 0.1 µg/mL (≈ 0.281 µM); MIC [8]: > 100 µg/mL; MIC (Mycobacterium avium): 12.8 µg/mL (≈ 35.9 µM); MIC [9, 16]: 0.01 µg/mL (≈ 0.0281 µM); MIC (Candida albicans): > 100 µg/mL; MIC [13]: > 100 µg/mL; MIC (Pseudomonas putida): > 100 µg/mL
3 | O=C(/C=C/c1cscn1)N1CCN(Cc2ccc3c(c2)OCO3)CC1 [AX-37, (E)-1-(4-(Benzo[d][1,3]dioxol-5-ylmethyl)piperazin-1-yl)-3-(1λ^3,3λ^2-thiazol-4-yl)prop-2-en-1-one] |  |  |  |  |  |  |  |  |  |  |  |  |  | 25 |  |  |  |  | 0.1 (≈ 0.28 µM) | 0.2 (≈ 0.56 µM) | Reduction of bacterial load in mouse lungs vs TPGS vehicle control (M. tuberculosis H37Rv [11]; oral 100 mg/kg): 0.6 log10
4 | O=C(/C=C/c1ccccc1)N1CCN(Cc2ccc3c(c2)OCO3)CC1 [AX-38, (E)-1-(4-(Benzo[d][1,3]dioxol-5-ylmethyl)piperazin-1-yl)-3-phenylprop-2-en-1-one] |  |  |  |  |  |  |  | medium | 13.3 | high | 63.8 |  |  | 37.5 |  |  |  |  | 0.2 (≈ 0.571 µM) | 0.3 (≈ 0.856 µM) | 
5 | O=C(/C=C/c1nccs1)N1CCN(Cc2ccc3c(c2)OCO3)CC1 [AX-39, (E)-1-(4-(Benzo[d][1,3]dioxol-5-ylmethyl)piperazin-1-yl)-3-(thiazol-2-yl)prop-2-en-1-one] |  |  |  |  |  |  |  |  |  |  |  |  |  | 75 |  |  |  |  | 0.3 (≈ 0.839 µM) | 1.8 (≈ 5.04 µM) | Reduction of bacterial load in mouse lungs vs TPGS vehicle control (M. tuberculosis H37Rv [11]; oral 100 mg/kg): 0.9 log10
6 | NC(=O)N1c2ccccc2C=Cc2ccccc21 [Carbamazepine, reference compound] |  |  |  |  |  |  |  |  |  |  |  |  |  |  |  |  |  |  |  |  | Clearance Category (in vitro; human microsomes, compound 2 µg/ml): low; Clearance Category (in vitro; mouse microsomes, compound 2 µg/ml): low
7 | CCc1nc2ccc(Cl)cn2c1C(=O)NCc1ccc(N2CCC(c3ccc(OC(F)(F)F)cc3)CC2)cc1 [Compound Q203, reference compound] |  |  |  |  |  |  |  |  |  |  |  |  |  |  |  |  |  |  |  |  | Increase in OCR on compound addition [3]: no longer observed; Oxygen consumption rate (OCR) change from basal on compound addition (M. tuberculosis H37Rv [10]): increase
8 | NNC(=O)c1ccncc1 [INH, isoniazid, reference compound] |  |  |  |  |  |  |  |  |  |  |  |  |  |  |  |  |  |  |  |  | log10 CFU per lung (M. tuberculosis H37Rv [11]; 25 mg/kg oral, Day 10): below l.o.d.
9 | CO[C@H]1/C=C/O[C@@]2(C)Oc3c(C)c(O)c4c(O)c(c(/C=N/N5CCN(C)CC5)c(O)c4c3C2=O)NC(=O)/C(C)=C\C=C\[C@H](C)[C@H](O)[C@@H](C)[C@@H](O)[C@@H](C)[C@H](OC(C)=O)[C@@H]1C [Rifampin, rifampin, reference compound] | 0.0008 (≈ 0.000972 µM) | 1 (≈ 1.22 µM) | 0.01 (≈ 0.0122 µM) | 0.8 (≈ 0.972 µM) | 1.7 (≈ 2.07 µM) | 3.8 (≈ 4.62 µM) | 0.6 (≈ 0.729 µM) |  |  |  |  | 0.7 (≈ 0.851 µM) | 0.5 (≈ 0.608 µM) |  | 6.7 (≈ 8.14 µM) | 0.3 (≈ 0.365 µM) | 26.9 (≈ 32.7 µM) | 0.7 (≈ 0.851 µM) |  | 0.1 (≈ 0.122 µM) | Cytotoxicity in HepG2 cells (TD50) (HepG2 cells; human): 75 µg/mL; MIC (Mycobacterium vaccae): 2.5 µg/mL (≈ 3.04 µM); MIC (M. tuberculosis H37Rv [6]; Mycobacterium tuberculosis, H37RV): 0.001 µg/mL (≈ 0.00122 µM); MIC (M. tuberculosis H37Rv [6]; Mycobacterium tuberculosis, H37RV, 144 h, read-out: Antimycobacterial activity against M. tuberculosis H37Rv, in vitro (MIC)): 0.0008 µg/mL (≈ 0.000972 µM); MIC [8]: 0.004 µg/mL (≈ 0.00486 µM); MIC (Mycobacterium avium): 25 µg/mL (≈ 30.4 µM); MIC [9]: 0.002 µg/mL (≈ 0.00243 µM); MIC (Candida albicans): 1.5 µg/mL (≈ 1.82 µM); MIC [13]: 0.0004 µg/mL (≈ 0.000486 µM); MIC (Pseudomonas putida): 0.2 µg/mL (≈ 0.243 µM)
